From US20110064773A1, “PHARMACEUTICAL COMPOSITIONS COMPRISING A THYROID HORMON AND THEIR THERAPEUTIC USE” (UNIVERSITE JOSEPH FOURIER, priority 2007, published 2011)
Entries after “also recorded” stand apart in the source; their conditions may differ.

Tests used:
Type in all cases: in vivo, rat
Wistar rats [1] = experiment: Indirect calorimetry (energy expenditure, respiratory quotient) of Wistar rats; conditions: for Energy expenditure and respiratory quotient (metabolic activity): 2.5 μg/100 g continuous, 21 days; for Energy expenditure (EE, metabolism): 25 μg/100 g BW
Excerpt: Energy expenditure as well as the nature of substrate oxidized (carbohydrates or lipids) were investigated by indirect calorimetry. This principle is based on the determinations of CO2 release (VCO2) and O2 consumption (VO2) by each animal. It assumes that O2 is entirely involved in substrate oxidation in the respiratory chain (leading to water production) while CO2 release is related to substrate decarboxylation (in the Krebs' cycle). These measurements allow assessing energy expenditure (EE) and respiratory quotient ([…], RQ). EE represent the absolute energy dissipation during rest and activity. RQ is a relative measurement indicating the ratio of carbohydrate versus lipid involved in oxidative pathway. A ratio of 1.0 indicates exclusive carbohydrate oxidation while a ratio of 0.7 indicates exclusive lipid oxidation. Each value between these two extreme values indicates the relative proportion of each substrate (of note protein oxidation was not evaluated). As an example, RQ approaches 0.7 during fasting, indicating lipid oxidation, conversely after feeding RQ increases close to 1 indicating carbohydrate oxidation resulting from food intake and blood insulin rise. Likewise, animals fed high-carbohydrate diets have higher RQs than those fed high-fat diets.
The indirect calorimetry system (Panlab, Barcelona, Spain) consists of cages, pumps, flow controllers, valves, and analyzers. It is computer-controlled in order to sequentially measure O2 and CO2 concentrations as well as air flow in four separate cages allowing four simultaneous determinations. Rats are isolated in one of the four metabolic chambers, and room air is used as a reference to monitor ambient O2 and CO2 concentrations periodically.
At predefined intervals, the computer sends a signal to store differential CO2 and O2 concentrations, flow rate, allowing computing VCO2, VO2, RQ, and EE (Weir equation) with data acquisition hardware (Metabolism, Panlab, Barcelona, Spain).

n0STZ rats = experiment: Oral glucose tolerance test (OGTT) and pancreas mass in n0STZ rats; conditions: 2.5 μg/100 g BW
Method: N0STZ rats are diabetic non obese with moderate insulin-resistance, and have received an injection of streptozotocine just after the birth, said product killing pancreatic cells.
The glucose resistance of these animals was tested by an oral glucose tolerance test (OGTT) Animals were fed with 2 g/kg BW of glucose and the Glucose concentration and Insulin concentration in blood were measured.
The glucose concentration (FIG. 35) and insulin concentration (FIG. 36) were then measured for this time.

Wistar rats [2] = experiment: Growth rate (body weight) and food intake of Wistar rats; conditions: for Body mass: 2.5 μg/100 g continuous
Method: Adult male rat bred in the animal room facilities of Laboratory of Fundamental and Applied Bioenergetics (Wistar strain) or purchased from Charles-River Laboratories, Domaine des oncins, L'ARBRESLE France [(genetically obese normoglycemic (Zucker or Fa/Fa) or diabetic (ZDF)] were caged individually in stainless steel hanging cages and maintained in a 22° C., 50±10% relative humidity and 12 h:12 h light:dark environment. All animals were fed ad libitum with a standard rat chow (Safe A04, Villemoisson, France) and tap water. Body mass and food intake were recorded twice/thrice a week and fresh food was provided at the same time to ensure minimal disturbance to the animals' food behavior.
Eight-week old rats (300 g±10 g) were anesthetized by simultaneous intraperitoneal injection of diazepam 4 mg/kg and ketamine 100 mg/kg. In order to maintain body temperature during the surgery (10 min), animals were placed on a warm blanket. After interscapular shaving, a small incision of 0.5 cm of the skin allows the subcutaneous implantation of a small pellet (containing rT3 or 3′,3-T2) with a 10-gauge precision trochar. The pellets, manufactured by Innovative Research of America (Sarasota, Fla., USA) are constituted of a biodegradable matrix that effectively and continuously release the active product in the animal.
[…] (reverseT3) or 3-3′ diiodothyronine (3-3′ T2) were used at different doses (5, 0.5, or 0.1 mg/pellet) were implanted in order to provide a continuous and constant drug delivery over 60 days (which represents 25 μg, 2.5 μg or 0.5 μg/day/100 g BW).
Wistar rats were treated with rT3 hormone by a daily intraperitoneal injection (IP) (25 μg/100 g BW), a daily sub-cutaneous injection (SC) (25 μg/100 g BW), or a per os administration included in the rat food (25 μg/100 g BW). The continuous and constant administration was performed by using a pellet (25 μg/100 g BW).
However the role of the administration site was further investigated by comparing continuous administration of rT3 by osmotic pump implanted either subcutaneously or intraperitonally with the reference treatment administered by sub-cutaneous pellets. Wistar rats were treated for 21 days with placebo, sub-cutaneous pellet or sub-cutaneous or intraperitoneal osmotic pumps. rT3 was administered continuously (2.5 μg/100 g).
Wistar rats were treated by a continuous and constant administration of low doses of rT3 by 3 different methods of administration: • a sub-cutaneous pellet, • an osmotic pump placed under the skin, and • an osmotic pump placed in the peritoneal cavity.

Wistar rats [3] = experiment: De novo hepatic lipogenesis (stable isotopes); conditions: rT3 2.5 μg/100 g BW
Excerpt: To confirm this point, the rate of endogenous triglyceride synthesis by using stable isotopes has been assessed.

[4] = 25 μg/100 g BW pellet, vs placebo
[5] = 2 g/kg glucose, 3 hours, vs placebo

N[C@@H](Cc1ccc(Oc2cc(I)c(O)c(I)c2)c(I)c1)C(=O)O [rT3, 3′,5′,3-triiodothyronine]
Energy expenditure and respiratory quotient (metabolic activity) (Wistar rats [1]; intra-peritoneal pump): increase of the metabolic activity
Energy expenditure and respiratory quotient (metabolic activity) (Wistar rats [1]; sub-cutaneous pump): increase of the metabolic activity
Respiratory quotient (RQ) during the day (diurnal period) (Wistar rats [1]; [4]): almost identical to placebo
Respiratory quotient (RQ) during the night (Wistar rats [1]; [4]): higher
Energy expenditure (EE, metabolism) (Wistar rats [1]; daily intra-peritoneal injection): do no modify the metabolism
Energy expenditure (EE, metabolism) (Wistar rats [1]; daily per os): do no modify the metabolism
Energy expenditure (EE, metabolism) (Wistar rats [1]; daily sub-cutaneous injection): do no modify the metabolism
Energy expenditure (EE, metabolic expenses) (Wistar rats [1]; 25 μg/100 g BW/day, continuous subcutaneous pellet, 24 h calorimetry): enhanced metabolic expanses
Respiratory quotient (RQ) (Wistar rats [1]; 25 μg/100 g BW/day, continuous subcutaneous pellet, after 900 min): significant difference from the placebo treated animals
Energy expenditure (EE) (Wistar rats [1]; high dose 25 μg/100 g BW): significantly enhance
Respiratory quotient (RQ) (Wistar rats [1]; high dose 25 μg/100 g BW, vs placebo): increase
Respiratory quotient (RQ) (Wistar rats [1]; low dose 2.5 μg/100 g BW, vs placebo): increase
Respiratory quotient (RQ) (Wistar rats [1]; ultra low dose 0.25 μg/100 g BW, vs placebo): decrease
AUC of the glucose concentration after OGTT (n0STZ rats; [5]): significantly reduced
AUC of the insulin concentration after OGTT (n0STZ rats; [5]): largely enhanced
Kinetic of blood glucose concentration after OGTT (n0STZ rats; 5 first minutes following the OGTT): regulate more rapidly
Kinetic of insulin concentration after OGTT (n0STZ rats; 20 min kinetic): high increase
Pancreas mass (n0STZ rats; vs placebo): increase
Body mass (Wistar rats [2]; osmotic pump in the peritoneal cavity, 21 days): significant reduction
Body mass (Wistar rats [2]; osmotic pump under the skin, 21 days): significant reduction
Food intake immediately after the pellet (Wistar rats [2]; 25 μg/100 g BW pellet, from day 4 until day 7): decrease
Influence on the animal mass (rat body weight) (Wistar rats [2]; 25 μg/100 g BW/day, continuous and constant administration (subcutaneous pellet), 8 days): reduce the rat body weight
Growth rate (body weight) (Wistar rats [2]; high dose 25 μg/100 g BW, subcutaneous pellet, 21 days, vs placebo): did not show any weight gain; also recorded: reduce the body weight
Appetite (food intake) (Wistar rats [2]; low dose 2.5 μg/100 g BW): without modifying their appetite
Body weight (body mass) (Wistar rats [2]; low dose 2.5 μg/100 g BW, sub-cutaneous pellet, 21 days, vs placebo): reduce the body weight; also recorded: significant reduction
Endogenous (liver) synthesis of lipids (Wistar rats [3]; day and night, effect maximal during the day): powerful stimulation
Hepatic lipogenesis, increase (Wistar rats [3]; vs placebo): ~4 fold
